Measured values: patent US6803233B2, “Model for Alzheimer's disease and other neurodegenerative diseases” (priority 2000, dated 2004)
Several values for one entry are separate records, joined by “and”; a condition that tells them apart may be missing. Identical values can stand only once.

Key:
[1] = tested on: tangle-like formations; assay: Electron microscopic immunogold analysis of cultured slices; format: cell-based, mouse; conditions: ZPAD 6 days
Protocol: Lowicryl resin-embedded ultrathin sections (of 70-80 nm thickness) were picked up on either pioloform-coated nickel slot grids or pioloform-coated 400 mesh nickel grids. The grids were incubated on drops of blocking solution, followed by incubation on drops of primary antibodies (AT8 or PHF-1). After the incubation with primary antibodies, the sections were washed in TBS (three times for 10 min each) and in 50 mM Tris-HCl, pH 7.4, containing 0.9% NaCl (“TBS*”; once for 10 min; TBS* has 50 mM Tris-HCl and 0.9% NaCl without KCl, while TBS has 25 mM Tris-HCl and KCl) ) and incubated on drops of goat anti-mouse IgG coupled to 10 nm gold particles (British BioCell Int.). The secondary antibodies were diluted 1:100 in TBS* containing 0.05% polyethylene glycol 20000 (BDH; Merck) and 1% gelatin for 2 hr at 28° C. After additional washing in TBS* (three times for 10 min each) and PBS (once for 10 min), the sections were post-fixed in 2% glutaraldehyde in PBS for 2 min at room temperature and then washed in bidistilled water (three times for 10 min each). Finally, the sections were contrasted with saturated aqueous uranyl acetate followed by staining with lead citrate. […]

[2] = tested on: cathepsin D; assay: Immunoblot of cathepsin D isoforms in cultured mouse hippocampal slices; format: cell-based; conditions: 20 μM ZPAD, 6 days
[3] = apoE-knockout mouse slices, relative to yoked knockout controls
[4] = wild-type mouse slices, relative to controls, mean±s.e.m.

increase in cathepsin D proenzyme (~55 kDa) [2, 3]: 145±43% and 145+43% | increase in cathepsin D proenzyme (~55 kDa) ([2]; wild-type mouse slices, relative to yoked controls, mean±s.e.m., n=9): 65±29% and 65+29%
Substance: N-CBZ-L-phenylalanyl-L-alanine-diazomethyl-ketone [ZPAD]
ultrastructure: intracellular inclusions [1]: Numerous intracellular inclusions | increase in cathepsin D heavy chain (~38 kDa) ([2]; apoE-knockout mouse slices, relative to control values): 84±26% and 84+26% | increase in cathepsin D single chain (~50 kDa) [2, 3]: 150±29% and 150+29% | increase in cathepsin D heavy chain (~38 kDa) [2, 4]: 3.0±5.7% and 3.0+5.7% | increase in cathepsin D single chain form (~50 kDa) [2, 4]: 42±22% and 42+22%
